Test results: patent publication US5358951A, “Angiotensin II receptor blocking 2, 3, 6 substituted quinazolinones” (American Cyanamid Company, priority 1993, dated 1994)

Tested on: vasopressor response of angiotensin II
Assay: AII Challenge: antagonism of angiotensin II vasopressor response;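 on Response Average Change: post-dose Angiotensin II-evoked rise in systolic blood pressure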
Assay type: in vivo
Conditions: for inhibition in vivo at 3 mg/kg / inhibition in vivo at 5 mg/kg: Rattus norvegicus; for inhibition in vivo at 3 mg/kg: iv; for inhibition in vivo at 5 mg/kg: po
Excerpt: Conscious Male Okamoto-Aoki SHR, 16-20 weeks old, weighing approximately 330 g are purchased from Charles River Labs (Wilmington, Mass.). Conscious rats are restrained in a supine position with elastic tape. The area at the base of the tail is locally anesthetized by subcutaneous infiltration with 2% procaine. The ventral caudal artery and vein are isolated, and a cannula made of polyethylene (PE) 10-20 tubing (fused together by heat) is passed into the lower abdominal aorta and vena cava, respectively. The cannula is secured, heparinized (1,000 I.U./ml), sealed and the wound is closed. The animals are placed in plastic restraining cages in an upright position. The cannula is attached to a Statham P23 Db pressure transducer, and pulsatile blood pressure is recorded to 10-15 minutes with a Gould Brush recorder. (Chan et al., (Drug Development Res., 18:75-94, 1989). Angiotensin II (human sequence, Sigma Chem. Co., St. Louis, Mo.) of 0.05 and 0.1 ug/kg i.v. is injected into all rats (predosing response). Then a test compound, vehicle or a known angiotensin II antagonist is administered i.v., i.p. or orally to each set of rats. The two doses of angiotensin II are given to each rat again at 30, 60, 90, 120, 180, 240 and 300 minutes post dosing the compound or vehicle. The vasopressor response of angiotensin II is measured for the increase in systolic blood pressure in mmHg. The percentage of antagonism or blockade of the vasopressor response of angiotensin II by a compound is calculated using the vasopressor response (increase in systolic blood pressure) of angiotensin II of each rat predosing the compound as 100%.

CCCCc1nc2ccc([C@@H]3C[C@H]4CCCN4O3)cc2c(=O)n1Cc1ccc(-c2ccccc2-c2nnn[nH]2)cc1 (racemic) [Example 57, Cis-(+/-)-2-Butyl-6-(hexahydropyrrolo[1,2-b]isoxazol-2-yl)-3-[[2'-(1H-tetrazol-5-yl)[1,1'-biphenyl]-4-yl]methyl]-4(3H)-quinazolinone]
Response Average Change (3 mg/kg I.V., AII 0.05 mcg/kg IV, 30 min post dose): 12.5 mmHg
Response Average Change (3 mg/kg I.V., AII 0.05 mcg/kg IV, 60 min post dose): 22.5 mmHg
Response Average Change (3 mg/kg I.V., AII 0.05 mcg/kg IV, 90 min post dose): 20 mmHg
Response Average Change (3 mg/kg I.V., AII 0.05 mcg/kg IV, 120 min post dose): 17.5 mmHg
Response Average Change (3 mg/kg I.V., AII 0.05 mcg/kg IV, 180 min post dose): 36 mmHg
Response Average Change (3 mg/kg I.V., AII 0.1 mcg/kg IV, 30 min post dose): 7.5 mmHg
Response Average Change (3 mg/kg I.V., AII 0.1 mcg/kg IV, 60 min post dose): 15 mmHg
Response Average Change (3 mg/kg I.V., AII 0.1 mcg/kg IV, 90 min post dose): 20 mmHg
Response Average Change (3 mg/kg I.V., AII 0.1 mcg/kg IV, 120 min post dose): 37.5 mmHg
Response Average Change (3 mg/kg I.V., AII 0.1 mcg/kg IV, 180 min post dose): 44 mmHg
Response Average Change (5 mg/kg P.O., AII 0.05 mcg/kg IV, 30 min post dose): 31.5 mmHg
Response Average Change (5 mg/kg P.O., AII 0.05 mcg/kg IV, 60 min post dose): 25 mmHg
Response Average Change (5 mg/kg P.O., AII 0.05 mcg/kg IV, 90 min post dose): 32.5 mmHg
Response Average Change (5 mg/kg P.O., AII 0.05 mcg/kg IV, 120 min post dose): 20 mmHg
Response Average Change (5 mg/kg P.O., AII 0.05 mcg/kg IV, 180 min post dose): 20 mmHg
Response Average Change (5 mg/kg P.O., AII 0.05 mcg/kg IV, 240 min post dose): 20 mmHg
Response Average Change (5 mg/kg P.O., AII 0.05 mcg/kg IV, 300 min post dose): 22.5 mmHg
Response Average Change (5 mg/kg P.O., AII 0.1 mcg/kg IV, 30 min post dose): 22.5 mmHg
Response Average Change (5 mg/kg P.O., AII 0.1 mcg/kg IV, 60 min post dose): 29 mmHg
Response Average Change (5 mg/kg P.O., AII 0.1 mcg/kg IV, 90 min post dose): 29.5 mmHg
Response Average Change (5 mg/kg P.O., AII 0.1 mcg/kg IV, 120 min post dose): 25 mmHg
Response Average Change (5 mg/kg P.O., AII 0.1 mcg/kg IV, 180 min post dose): 41.5 mmHg
Response Average Change (5 mg/kg P.O., AII 0.1 mcg/kg IV, 240 min post dose): 40 mmHg
Response Average Change (5 mg/kg P.O., AII 0.1 mcg/kg IV, 300 min post dose): 42.5 mmHg
inhibition in vivo at 3 mg/kg (0.5 h, 3 mg/kg I.V., AII 0.05 mcg/kg IV, 30 min post dose): 67%
inhibition in vivo at 3 mg/kg (0.5 h, 3 mg/kg I.V., AII 0.1 mcg/kg IV, 30 min post dose): 81%
inhibition in vivo at 3 mg/kg (1 h, 3 mg/kg I.V., AII 0.05 mcg/kg IV, 60 min post dose): 40%
inhibition in vivo at 3 mg/kg (1 h, 3 mg/kg I.V., AII 0.1 mcg/kg IV, 60 min post dose): 63%
inhibition in vivo at 3 mg/kg (2 h, 3 mg/kg I.V., AII 0.05 mcg/kg IV, 120 min post dose): 57%
inhibition in vivo at 3 mg/kg (2 h, 3 mg/kg I.V., AII 0.1 mcg/kg IV, 120 min post dose): 17%
inhibition in vivo at 3 mg/kg (3 h, 3 mg/kg I.V., AII 0.05 mcg/kg IV, 180 min post dose): 11%
inhibition in vivo at 3 mg/kg (3 h, 3 mg/kg I.V., AII 0.1 mcg/kg IV, 180 min post dose): 2%
inhibition in vivo at 3 mg/kg ([…], 3 mg/kg I.V., AII 0.05 mcg/kg IV, 90 min post dose): 47%
inhibition in vivo at 3 mg/kg ([…], 3 mg/kg I.V., AII 0.1 mcg/kg IV, 90 min post dose): 50%
inhibition in vivo at 5 mg/kg (0.5 h, 5 mg/kg P.O., AII 0.05 mcg/kg IV, 30 min post dose): 26%
inhibition in vivo at 5 mg/kg (0.5 h, 5 mg/kg P.O., AII 0.1 mcg/kg IV, 30 min post dose): 47%
inhibition in vivo at 5 mg/kg (1 h, 5 mg/kg P.O., AII 0.05 mcg/kg IV, 60 min post dose): 41%
inhibition in vivo at 5 mg/kg (1 h, 5 mg/kg P.O., AII 0.1 mcg/kg IV, 60 min post dose): 32%
inhibition in vivo at 5 mg/kg (2 h, 5 mg/kg P.O., AII 0.05 mcg/kg IV, 120 min post dose): 53%
inhibition in vivo at 5 mg/kg (2 h, 5 mg/kg P.O., AII 0.1 mcg/kg IV, 120 min post dose): 41%
inhibition in vivo at 5 mg/kg (3 h, 5 mg/kg P.O., AII 0.05 mcg/kg IV, 180 min post dose): 53%
inhibition in vivo at 5 mg/kg (3 h, 5 mg/kg P.O., AII 0.1 mcg/kg IV, 180 min post dose): 2%
inhibition in vivo at 5 mg/kg (4 h, 5 mg/kg P.O., AII 0.05 mcg/kg IV, 240 min post dose): 53%
inhibition in vivo at 5 mg/kg (4 h, 5 mg/kg P.O., AII 0.1 mcg/kg IV, 240 min post dose): 6%
inhibition in vivo at 5 mg/kg (5 h, 5 mg/kg P.O., AII 0.05 mcg/kg IV, 300 min post dose): 47%
inhibition in vivo at 5 mg/kg (5 h, 5 mg/kg P.O., AII 0.1 mcg/kg IV, 300 min post dose): 0%
inhibition in vivo at 5 mg/kg ([…], 5 mg/kg P.O., AII 0.05 mcg/kg IV, 90 min post dose): 24%
inhibition in vivo at 5 mg/kg ([…], 5 mg/kg P.O., AII 0.1 mcg/kg IV, 90 min post dose): 31%
